Earlier results, collected in patent publication US20010031278A1, “Sustained release oxycodone formulations with no fed/fast effect” (priority 1996, published 2001).

Settings: gastric fluid (pH about 1) vs intestinal fluid (pH about 7.5)

COc1ccc2c3c1O[C@H]1C(=O)CC[C@@]4(O)[C@@H](C2)N(C)CC[C@]314.Cl [Oxycodone hydrochloride]
solubility at low vs high pH: more soluble in gastric fluid (pH about 1) than in intestinal fluid (pH about 7.5)
